The values that follow come from patent US9642897B2, “Treatment of bone diseases” (THE UNIVERSITY OF SYDNEY, priority 2011, dated 2017).

SMILES strings stand for the structures. “Also recorded” adds a separate entry of the source.

Experiment [1] deals with bone marrow stromal cells (BMSC). Kind of experiment: Ex vivo cultures of BMSC from PA-treated mice (alizarin red, ALP, CFU-OB). It counts as in vivo, C57BL/6 mice. On the procedure:
To establish adherent bone marrow cultures, both tibiae from PA- and vehicle-treated animals (n=6 per group) were flushed using a 21-gauge needle attached to a 10 ml syringe filled with Dulbecco's modified Eagle's Medium (DMEM) (GIBCO BRL, Gaithersburg, Md., USA). Cells from both tibiae were filtered through a cell strainer with 70-micron nylon mesh (BD Bioscience, Bedford, Mass., USA) and then combined to produce a volume of 2 ml containing ˜10^7 cells/ml. Six-well plate cultures were then established in triplicate, with each well containing a 100-μl aliquot of cell suspension combined with 4 ml of fresh -MEM medium. […]
To induce differentiation, a total of 10^4 cells were diluted in osteogenic medium (prepared with DMEM, 10% FCS, […] dexamethasone, 10 mmol/L β glycerol phosphate and 50 μg/mL ascorbic acid) and plated in six well plates. […] For alkaline phosphatase quantification, the colonies with more than 10% of cells staining positive for ALP were considered as colony forming units-osteoblasts (CFU-OB). For alizarin red quantification, matrix mineralization was quantified by extracting the Alizarin red staining with 100 mM cetypyridinium chloride (Sigma, St. Louis, Mo., USA) at room temperature for 3 h. The absorbance of the extracted Alizarin red S staining was measured at 570 nm.

In experiment [2] the test system is Runx2 and OCN. Kind of experiment: RT-PCR of Runx2 and OCN in bone marrow cells of PA-treated mice. The experiment is classed as in vivo, C57BL/6 mice. Conditions: all PA-treated groups vs vehicle. How it is done: Bone marrow cells were flushed and isolated as previously described. Total RNA was extracted from marrow cells using a QIAGEN RNeasy Mini extraction kit following manufacturer's instructions (QIAGEN Pty, Doncaster, VIC, Australia; cat#74104). First strand complementary DNA (cDNA) synthesis was performed using 200 ng of total RNA, 50 ng random hexamers and 50 units reverse transcriptase at 42° C. for 1 hour, as described by manufacturer (Bioline Australia Pty, Alexandria, NSW, Australia; cat# BIO-65025). Real-time PCR for expressed genes as markers for osteogenesis was performed in duplicate in a total reaction volume of 25 μl, 10% of which was cDNA (or water for non-template control), 3 mM MgCl2 and 250 nM of each forward and reverse specific primer for target genes and normalizer. Primers for specific detection of mRNA expression included: […]
All PCRs were performed in a Corbett Rotor-Gene™ 3000 (QIAGEN Pty) using SYBR green with no-ROX reaction mix and a standard thermal profile as described by supplier (Bioline Australia Pty, Alexandria, NSW, Australia; cat# QT6750-02). Quantitative RT-PCR data was defined by threshold cycle (Ct) normalized for the housekeeping gene glyceraldehyde-3-phosphate dehydrogenase (GAPDH): […]

The test system of experiment [3] is mesenchymal stem cells (MSC). Nature of the experiment: Mineralization (alizarin red staining) of osteogenic differentiating MSC. The experiment is classed as cell-based, human. The conditions noted are these: MSC in OIM, 2 weeks. On the procedure: Human mesenchymal stem cells (MSC) (BioWhittaker, Walkersville, Md., USA) were plated at a density of 5×10^5 cells per well in 150 cm^2 dishes containing MSC growth medium (GM) (BioWhittaker, Walkersville, Md., USA) with 10% fetal calf serum (FCS) and incubated at 37° C. After the cells reached 60% confluence, media was replaced with either GM or osteoblastogenesis induction media (OIM) (prepared with MSCGM, 10% FCS, […] dexamethasone, 10 mmol/L β glycerol phosphate and 50 μg/mL ascorbic acid) for 21 days. Media was changed every three days. Media obtained at the beginning of the 1st, 2nd and 3rd wk of differentiation as well as conditioned media were collected for measurement of IFNγ. Concentrations of IFNγ in the conditioned media were measured from both GM and OM treated cells using Human […] DuoSet ELISA Development Kit (R&D Systems, Minneapolis, Mich., USA). To compare between the osteogenic and the immune effect of IFNγ, Jurkat cells and human T lymphocytes were plated at a density of 5×10^5 cells per well in 150 cm^2 dishes containing RPMI media.
(§1) Subsequently, the effect of chemical inhibition/stimulation of the intermediate and end products of kynurenine activation on osteogenic differentiating MSC was then characterised.
These compounds were added to the MSC media on day one of differentiation. Cells were treated for […]. Media was changed every three days. After three weeks of treatment, osteoblastogenesis and changes in osteogenic genes were quantified as described above.

Experiment [4] concerns OVX C57BL/6 mice (osteoporosis model). Nature of the experiment: Bone histology and dynamic histomorphometry in Sham and OVX mice. It counts as in vivo. The source says: Nine-month-old oophorectomised (OVX) and SHAM-operated C57BL/6 mice (n=24 per group) were obtained from the Animal Resources Centre (Perth, Wash.). After 2 weeks of acclimation, mice were divided into four groups (Table 2) and received treatment in their drinking water for a total of 6 weeks. Mice treated with plain water were used as controls. Mice were housed in cages in a limited access room.
For dynamic histomorphometry, tetracycline labelling was achieved through the intraperitoneal injection of demeclocycline (20 mg/kg) (Sigma Chemicals, St. Louis, Mo., USA) to the three treated groups at 5 and 2 days before sacrifice. One side femur from each animal in each group was removed at the time of killing, fixed in 70% ethanol, dehydrated, and embedded undecalcified in methylmethacrylate (J-T Baker, Phillipsburg, N.J., USA). At 50 μm intervals, longitudinal sections of 5 and 8 μm thick were cut using a polycut-E microtome (Reichert-Jung Leica, Heerbrugg, Switzerland), placed on gelatine-coated glass slides, deplastified and stained with Goldner's trichrome. Histomorphometry was done with a semi-automatic image analysing system combining a microscope equipped with a camera lucida and digitizing tablet linked to a computer using the OsteoMeasure Software (Osteometrics Inc., Decatur, Ga., USA). Nomenclature and abbreviations of histomorphometric parameters follow the recommendations of the American Society of Bone and Mineral Research (see Parfitt et al. (1987), “Bone histomorphometry: Standardization of nomenclature, symbols and units”, J Bone Miner Res., 2: 595-610.)

Experiment [5] deals with RUNX2, OCN and OPN. Kind of experiment: Osteogenic gene expression (RUNX2, OCN, OPN) in differentiating MSC. It counts as cell-based, human. On the procedure: as §1
These compounds were added to the MSC media on day one of differentiation. […] Media was changed every three days. […]

[6] abbreviates: highest dose (100 μM), 14 days post-induction.

Regarding `O=C(O)c1ccccn1` [PA, pyridine-2-carboxylic acid], the “capacity to mineralise (alizarin red), ex vivo BMSC” value in experiment [1] (SHAM and OVX mice treated 6 weeks, 2 weeks culture in osteogenic media) is listed as “significantly capacity to mineralise”. Besides, in experiment [1] (cultures from PA-treated vs vehicle treated mice), the “number of colony forming units-osteoblasts (CFU-OB)” value is given as “significantly higher”. The “mRNA levels of osteogenic genes Runx2 and OCN” value in experiment [2] is listed as “higher levels”. In addition, the “osteoblastogenesis / mineralisation (alizarin red)” value in experiment [3] is recorded as “accelerated mineralisation; also recorded: stimulate osteoblastogenesis”. Also, the “bone turnover (fluorochrome double labelling)” value in experiment [4] (Sham and OVX mice, oral PA 6 weeks) was “significant and dose-dependent increase in bone turnover”. The “mineral apposition rates (MAR)” value in experiment [4] (trabecular and cortical bone, vs vehicle) is reported as “increased mineral apposition rates”. The “mineralized bone (Von Kossa labelling)” value in experiment [4] (vs untreated controls) is given as “higher levels of mineralized bone”. Moreover, the “relative gene expression of RUNX2, OCN and OPN” value in experiment [5] (differentiating MSC) is “increased”. Besides, in experiment [5] (setting [6]), the “RE of RUNX2” value was found to be 1.43, the RE of osteocalcin was determined as 1.93 and the RE of osteopontin stood at 1.35.
